Measured values: PMC8645336, “Benchmarking a highly selective USP30 inhibitor for enhancement of mitophagy and pexophagy” (Life Science Alliance, 2021)

Key:
Assay in all cases: biochemical
Design in all cases: Ubiquigent DUB profiler selectivity panel, remaining enzyme activity as % of control
Conditions in all cases: read-out: % of control remaining
Ataxin3L = biological target: T1, Ataxin3L (Homo sapiens, UniProt Q9H3M9)
T1 construct: gene ATXN3L
T1 sequence (Q9H3M9 1-355): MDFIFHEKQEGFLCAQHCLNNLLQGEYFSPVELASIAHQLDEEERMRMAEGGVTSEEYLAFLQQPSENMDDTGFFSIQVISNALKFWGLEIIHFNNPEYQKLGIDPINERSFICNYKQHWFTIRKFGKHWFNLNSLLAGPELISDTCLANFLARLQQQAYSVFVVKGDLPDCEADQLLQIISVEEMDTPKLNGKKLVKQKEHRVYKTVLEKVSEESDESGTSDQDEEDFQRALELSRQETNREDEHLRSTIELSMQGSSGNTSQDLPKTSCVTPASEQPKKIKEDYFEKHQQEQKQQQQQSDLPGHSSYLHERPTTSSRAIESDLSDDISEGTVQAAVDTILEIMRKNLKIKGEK
Method in brief: (§1)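 In YFP-PRKN-overexpressing hTERT-RPE1 cells, 1 h antimycin A plus oligomycin A (1 μM each) with CMPD-39, then Western blot of TOMM20 ubiquitylation. Target engagement: 2 h compound, then 10 min HA-Ub-PA at 37°C, read as USP30 shift. DUB panel (>40 enzymes) screened at 1-100 μM.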

OTUD6B = biological target: T2, OTUD6B (Homo sapiens, UniProt Q8N6M0)
T2 sequence (Q8N6M0 1-293): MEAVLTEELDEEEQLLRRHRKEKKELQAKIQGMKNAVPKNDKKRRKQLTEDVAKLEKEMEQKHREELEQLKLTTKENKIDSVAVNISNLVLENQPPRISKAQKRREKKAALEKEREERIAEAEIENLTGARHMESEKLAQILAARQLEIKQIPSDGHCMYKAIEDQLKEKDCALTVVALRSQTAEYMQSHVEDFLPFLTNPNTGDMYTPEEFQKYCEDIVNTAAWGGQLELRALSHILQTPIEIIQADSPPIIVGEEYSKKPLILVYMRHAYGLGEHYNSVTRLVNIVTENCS
Method in brief: as §1

UCHL1 = biological target: T3, UCHL1 (Homo sapiens, UniProt P09936)
T3 sequence (P09936 1-223): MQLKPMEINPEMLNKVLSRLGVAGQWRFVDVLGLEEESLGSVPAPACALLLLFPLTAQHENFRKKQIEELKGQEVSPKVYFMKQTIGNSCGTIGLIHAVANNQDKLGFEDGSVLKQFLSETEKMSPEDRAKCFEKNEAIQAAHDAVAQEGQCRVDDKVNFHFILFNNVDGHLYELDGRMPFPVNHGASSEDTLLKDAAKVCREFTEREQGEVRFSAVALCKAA
Method in brief: as §1

USP27x = biological target: T4, USP27x (Homo sapiens, UniProt A6NNY8)
T4 sequence (A6NNY8 1-438): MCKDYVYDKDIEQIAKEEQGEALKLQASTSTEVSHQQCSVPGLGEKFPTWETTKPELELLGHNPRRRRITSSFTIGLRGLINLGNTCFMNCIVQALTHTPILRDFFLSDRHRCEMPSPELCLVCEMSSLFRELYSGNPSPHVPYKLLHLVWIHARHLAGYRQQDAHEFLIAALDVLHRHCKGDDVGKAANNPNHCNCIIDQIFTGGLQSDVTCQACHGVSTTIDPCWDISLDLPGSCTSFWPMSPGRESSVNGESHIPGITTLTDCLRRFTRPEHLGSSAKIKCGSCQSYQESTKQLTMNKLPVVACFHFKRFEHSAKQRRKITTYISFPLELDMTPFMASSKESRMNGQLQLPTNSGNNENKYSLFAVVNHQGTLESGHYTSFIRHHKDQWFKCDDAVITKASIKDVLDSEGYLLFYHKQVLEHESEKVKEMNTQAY
Method in brief: as §1

## CC(C)(C)NS(=O)(=O)c1ccc(NC(=O)[C@H](Cc2ccccc2)NC(=O)c2ccc(F)cc2)cc1 [compound 39, CMPD-39]
Ataxin3L
  remaining activity at 1 µM: 103%
  remaining activity at 10 µM: 101%
  remaining activity at 100 µM: 102%
OTUD6B
  remaining activity at 1 µM: 110%
  remaining activity at 10 µM: 100%
  remaining activity at 100 µM: 101%
UCHL1
  remaining activity at 1 µM: 103%
  remaining activity at 10 µM: 98.5%
  remaining activity at 100 µM: 96.3%
USP27x
  remaining activity at 1 µM: 108%
  remaining activity at 10 µM: 93.8%
  remaining activity at 100 µM: 93.4%
